From patent US20140309280A1, “ASSAYS FOR MICRO-RNA-182 AS A BIOMARKER FOR MUSCLE ATROPHY AND THERAPEUTIC APPLICATIONS” (EMORY UNIVERSITY, priority 2013, published 2014)

Experiments:
C2C12 myotubes [1] = assay: FoxO3 mRNA and intracellular miR-182 in C2C12 myotubes treated with Dex to induce atrophy; format: cell-based, Mouse; conditions: Dex 1 μM, 6 hours
Protocol: (§1) FoxO3 mRNA (Panels A and C) and miR-182 (Panels B and D) were measured in either cells treated with Dex (1 μM) for 6 h (Panels A and B) or in gastrocnemius muscles of either control or streptozotocin-injected, acutely diabetic rats (Panels C and D). Results are reported as the mean±SEM of the fold-change of the respective control values.
To test this, C2C12 myotubes were treated with dexamethasone (Dex), a synthetic glucocorticoid, which induces atrophy, in part, by increasing FoxO3 activity in C2C12 myotubes. […] Simultaneously, the amount of intracellular miR-182 decreased 44% (FIG. 2B).
Mouse C2C12 myoblasts (American Type Culture Collection, Manassas, Va.) were cultured in growth media [Dulbecco modified Eagle medium plus 10% fetal bovine serum (Atlanta Biologicals, Lawrenceville, Ga.) and 1% penicillin and streptomycin (Invitrogen, Carlsbad, Calif.)] and studied between passage 3 and 7. Myoblasts were grown to ˜95% confluence in a 6-well plate and then differentiated into myotubes by replacing growth media with differentiation media (DMEM supplemented with 2% fetal bovine serum and 1% PS) for 3 days. In some experiments, myotubes were treated with 1 μM Dex for 6 hours before being harvested.

C2C12 myotubes [2] = assay: miR-182 in media exosomes released from C2C12 myotubes after Dex; format: cell-based, Mouse; conditions: Dex 6 h
Protocol: Fresh differentiation media containing 100 nM Dex or vehicle was added to myotubes for 6 h. Afterwards, RNA was prepared from isolated media exosomes and miR-182, along U6 controls, was measured.
One mechanism by which microRNAs are protected from degradation is through incorporation into protective exosomes. This has led some to propose that the relative abundance patterns of microRNAs in various tissues and fluids as well as exosomes and other microvesicles are a reflection of underlying pathophysiological processes. Dex administration enhances the exosomal packaging and release of two atrophy-related microRNAs (miR-1 and miR-23a) into the media of C2C12 myotubes. This led us to test whether miR-182 is incorporated into exosomes that are released from myotubes. The amount of miR-182 in exosomes, normalized to U6 small nuclear RNA, is increased 95% in exosomes following Dex treatment to myotubes (FIG. 4). […]
To quantify exosomal microRNA, exosome-associated RNA, including microRNA, was isolated using a urine exosome RNA isolation kit (Norgen Biotek, Thorolod, ON, Canada) according to the manufacturer's instructions for isolating RNA from extracellular fluids. Subsequent quantitative PCR (qPCR) was performed.

gastrocnemius muscle = assay: Streptozotocin diabetes model of muscle atrophy: FoxO3 mRNA and miR-182 in gastrocnemius muscle; format: in vivo; conditions: rats, STZ 125 mg/kg single intravenous injection, third day; for decrease of miR-182 in muscle: vs controls
Protocol: as §1
Whether there is a similar relationship between FoxO3 and miR-182 expression was investigated in vivo in skeletal muscle during atrophy. STZ-induced diabetes mellitus causes muscle atrophy and responses (e.g., increased atrogin-1 expression) that are consistent with FoxO3 activation. Therefore, FoxO3 expression was evaluated during STZ-induced diabetes mellitus by measuring FoxO3 mRNA. FoxO3 mRNA was increased 75% (FIG. 2D) whereas the level of miR-182 was decreased 43% (P<0.05) (FIG. 2D).
Male rats (˜150 gm) received a single intravenous injection of STZ (125 mg/kg) in citrate buffer. STZ-injected and control rats were pair-fed and on the third day after injection the animals were anesthetized, and the gastrocnemius muscle was harvested. Food was withheld during the night before the tissue harvest to avoid the confounding influences of variable food intake on skeletal muscle protein metabolism. All animal studies were approved by the Emory Institutional Animal Care and Use Committee (IACUC).

Compound | decrease of intracellular miR-182 (C2C12 myotubes [1]) | increase of FoxO3 mRNA (C2C12 myotubes [1]) | decrease of intracellular miR-182 (C2C12 myotubes [1]; listed as dexamethasone) | increase of miR-182 in exosomes, normalized to U6 small nuclear RNA (C2C12 myotubes [2]) | decrease of miR-182 in muscle (gastrocnemius muscle; P<0.05) | decrease of miR-182 in muscle (gastrocnemius muscle; P<0.05, listed as STZ) | increase of FoxO3 mRNA in muscle (gastrocnemius muscle; vs pair-fed controls)
C[C@@H]1C[C@H]2[C@@H]3CCC4=CC(=O)C=C[C@]4(C)[C@@]3(F)[C@@H](O)C[C@]2(C)[C@@]1(O)C(=O)CO [Dexamethasone, dexamethasone] | 63% | 133% | 44% | 95% | – | – | –
CN(N=O)C(=O)N[C@H]1C(O)O[C@H](CO)[C@@H](O)[C@@H]1O (mixture of isomers) [streptozotocin] | – | – | – | – | 44% | 43% | 75%
